We go through seven compounds from patent US6392098B1, “Conformationally restricted polyamines” (Wisconsin Alumni Research Foundation, priority 1997, dated 2002).

Counter-ions that a name gives are not always drawn.

In data set [1] the test system is brain cancer cells U251MG-NCI. The data set is described as follows: Growth of U251MG-NCI cells at fixed drug concentration (viable cells over days). The data set is classed as cell-based, human. The protocol: FIGS. 7 and 8 depict the effect of fixed doses of 10 μM and 40 μM of the subject compounds, respectively, on the growth of the human brain cancer cell line U251MG-NCI. Here, the X-axis represents time in days, and the Y-axis represents the total number of viable cells.
Human breast cancer cell line MCF7 was grown in Richter's Improved Modified Eagle's Medium supplemented with 10% fetal bovine serum (FBS) and 2.2 g/L sodium bicarbonate. Human brain cancer cell line U251MG-NCI was grown in Dulbecco's Modified Eagle's Medium supplemented with 10% FBS. Human lung cancer cell line A549 was grown in Ham's F-12K medium (Fisher Scientific, Itasca, Ill.), supplemented with 10% FBS and 2 mM L-glutamine. Human colon cancer cell line HT29 was cultured in McCoy's 5A medium (Gibco, BRL, Gaithersburg, Md.), supplemented with 10% FBS. Human prostate cancer cell line PC3 was grown in Dulbecco's Modified Eagles Medium supplemented with 5% FBS. The A549 and MCF7 cell lines were cultured in 100 units/mL penicillin and 100 μg/mL streptomycin. HT29 and U251MG cell lines were grown in 50 μg/mL gentamycin. PC3 cell lines were maintained in 1% antibiotic-antimycotic solution (Sigma, St. Louis, Mo.). […]
Here, the above-identified compounds were administered in a 10 μM dose to cultures of the human brain cancer cell line U251MG-NCI and evaluated according to the standard protocol described above. […]

Data set [2] has as its system human brain cancer cells U251 MG. The data set is described as follows: MTT cell survival assay, U251MG NCI. The data set is classed as cell-based. The conditions noted are these: six days after drug treatment, read-out: Cytotoxic Activity Human Tumor Cell Lines ID50 U251MG NCl. The protocol:
Human breast cancer cell line MCF7 was grown in Richter's Improved Modified Eagle's Medium supplemented with 10% fetal bovine serum (FBS) and 2.2 g/L sodium bicarbonate. Human brain cancer cell line U251MG-NCI was grown in Dulbecco's Modified Eagle's Medium supplemented with 10% FBS. […] Human prostate cancer cell line PC3 was grown in Dulbecco's Modified Eagles Medium supplemented with 5% FBS. […] The cell cultures were maintained at 37° C. in 5% CO2/95% humidified air.
Here, a conventional MTT assay was used to evaluate percent cell survival. Exponentially growing monolayer cells were plated in 96-well plates at a density of 500 cells per well and allowed to grow for 24 hours. Serial dilutions of the drugs were added to the wells. Six days after drug treatment, 25 μl of MTT solution (5 mg/ml) was added to each well and incubated for 4 hours at 37° C. Then 100 μl of lysis buffer (20% sodium dodecyl sulfate, 50% DMF, and 0.8% acetic acid, pH 4.7) was added to each well and incubated for an additional 22 hours. A microplate reader (“EMAX”-brand, Molecular Devices, Sunnyvale, Calif.) set at 570 nm was used to determine the optical density of the cultures. Results are expressed as a ratio of the optical density in drug-treated wells to the optical density in wells treated with vehicle only.
The ID50 is the drug concentration that killed 50% of the cultured cells.

Usually melting point stands for the temperature, or range, at which the solid turns liquid.

As for `CCNCCCNC[C@@H]1C[C@@H]1CNCCCNCC` (as salt: hydrochloride) [SL-11037, N-Ethyl-N′-(2-(3′-ethylamino-propylaminomethyl)-cis-cyclopropylmethyl)-propane 1,3-diamine tetrahydrochloride], the melting point was 240 °C (dec.).

For the compound `CCNCCCNCC1CC1CNCCCNCC` (stereo not drawn) (as salt: hydrochloride) [SL-11038, N-Ethyl-N′-(2-(3′-ethylamino-propylaminomethyl)-trans-cyclopropylmethyl)-propane-1,3-diamine tetrahydrochloride], the melting point is 270 °C (dec.).

For the compound `CCNCCCNC[C@H]1CC[C@H]1CNCCCNCC` (as salt: hydrochloride) [SL-11043, N-Ethyl-N′-(2-(3′-ethylamino-propylaminomethyl)-cis-cyclobutylmethyl)-propane1,3-diamine tetrahydrochloride], the melting point lay within 92 to 93 °C.

Turning to `CCNCCCNCC1CCC1CNCCCNCC` (stereo not drawn) (as salt: hydrochloride) [SL-11044, N-Ethyl-N′-(2-(3′-ethylamino-propylaminomethyl)-trans-cyclobutylmethyl)-propane1,3-diamine tetrahydrochloride], the melting point is 77 to 78 °C.

Consider `CCNCCCNC1CC1NCCCNCC` (centres unmarked) [SL-11027], for which the melting point is 240 °C (dec.). For the same compound, the “effect on growth of U251MG-NCI cells” value in data set [1] (10 μM concentration) was “marked inhibition of cell growth”.

As to `CCNCCCNC1CCC1NCCCNCC` (centres unmarked) [SL-11034], the “effect on growth of U251MG-NCI cells” value in data set [1] (40 μM concentration) was “marked inhibition of cell growth”.

Take `CCNCCCNCC1CC1CNCCCNCC` (stereo not drawn) [SL-11038, N-Ethyl-N′-(2-(3′-ethylamino-propylaminomethyl)-trans-cyclopropylmethyl)-propane-1,3-diamine tetrahydrochloride]: in data set [2], the IC50 was 100 nM.
